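Grown in 96-well plates, cells were treated for 48 hours with each compound at five concentrations. Insufficient inhibition: endpoint recorded as highest concentration tested. GI50 marks 50% less growth.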 Calls of active or inactive are those of the source. Cut-off read from the data, not from the text of the source: active = GI50 up to about 1.1 µM and inactive = higher.
Columns and labels:
Assay in all cases: DTP human tumour cell line panel, 48 h
MDA-N = tested on: MDA-N
SN12C = tested on: SN12C
DU-145 = tested on: DU-145
T47D = tested on: T47D
HOP-62 = tested on: HOP-62
RPMI-8226 = tested on: RPMI-8226
KM12 = tested on: KM12
OVCAR-4 = tested on: OVCAR-4
NCI-H522 = tested on: NCI-H522
A498 = tested on: A498
Hs-578T = tested on: Hs-578T
OVCAR-5 = tested on: OVCAR-5
SF-268 = tested on: SF-268
HOP-92 = tested on: HOP-92
RXF 393 = tested on: RXF 393
TK-10 = tested on: TK-10
HCT-116 = tested on: HCT-116
SF-539 = tested on: SF-539
U-251 = tested on: U-251
SK-MEL-5 = tested on: SK-MEL-5

Measured: GI50

O=C(O)c1c(Br)c(Br)c(Br)c(Br)c1C1c2ccc(O)cc2Oc2cc(O)ccc21
inactive: MDA-N > 100 µM | SN12C > 100 µM | DU-145 > 100 µM | T47D > 100 µM | HOP-62 > 100 µM | RPMI-8226 > 100 µM | KM12 > 100 µM | OVCAR-4 > 100 µM | NCI-H522 > 100 µM | A498 > 100 µM | Hs-578T > 100 µM | OVCAR-5 > 100 µM | SF-268 > 100 µM | HOP-92 > 100 µM | RXF 393 > 100 µM | TK-10 > 100 µM | HCT-116 > 100 µM | SF-539 > 100 µM | U-251 > 100 µM | SK-MEL-5 > 100 µM

Clc1ccc(/C(=C\c2ccccc2)Cn2ccnc2)cc1
inactive: MDA-N 14.9 µM | SN12C 27.4 µM | DU-145 20.1 µM | T47D 19.2 µM | HOP-62 15.9 µM | RPMI-8226 22.3 µM | KM12 4.93 µM | OVCAR-4 30.5 µM | NCI-H522 8.15 µM | A498 15.3 µM | Hs-578T > 100 µM | OVCAR-5 19.8 µM | SF-268 4.25 µM | HOP-92 14.8 µM | RXF 393 17.3 µM | TK-10 35.6 µM | HCT-116 14.8 µM | SF-539 16.3 µM | U-251 15.2 µM | SK-MEL-5 12.8 µM

Brc1cccc(C2ON=C(c3ccccc3)N2C23CC4CC(CC(C4)C2)C3)c1 (stereo not given)
inactive: MDA-N > 10 µM | SN12C > 10 µM | DU-145 > 10 µM | T47D > 10 µM | HOP-62 > 10 µM | RPMI-8226 > 10 µM | KM12 > 10 µM | OVCAR-4 > 10 µM | NCI-H522 > 10 µM | A498 > 10 µM | Hs-578T > 10 µM | OVCAR-5 > 10 µM | SF-268 > 10 µM | HOP-92 5.42 µM | RXF 393 > 10 µM | TK-10 > 10 µM | HCT-116 > 10 µM | SF-539 > 10 µM | U-251 > 10 µM | SK-MEL-5 > 10 µM

— ChEMBL document CHEMBL1201862, “PubChem BioAssay data set” (2004)
